Several values for one entry are separate records, joined by “and”; a condition that tells them apart may be missing. Identical values can stand only once. Toxic doses and inconclusive results are not listed.
System: L1210 leukemia ip in BDF1 mice, survival T/C
Assay: NCI In Vivo Anticancer Drug Screen. Data for tumor model L1210 Leukemia (intraperitoneal) in B6D2F1 (BDF1) mice
Conditions: endpoint: mean survival time, higher = longer survival
How it was run: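 Tumor was transplanted into mice, which were then dosed with test compound or vehicle alone. Survival was recorded for each group, and the treated figure was expressed relative to the control figure.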

[1] = dose: 100.0 mg/kg/injection, schedule: Q01DX001 (ip), vehicle: saline
[2] = dose: 200.0 mg/kg/injection, schedule: Q01DX001 (ip), vehicle: saline
[3] = dose: 400.0 mg/kg/injection, schedule: Q01DX001 (ip), vehicle: saline
[4] = dose: 50.0 mg/kg/injection, schedule: Q01DX009 (ip), vehicle: saline
[5] = dose: 100.0 mg/kg/injection, schedule: Q01DX009 (ip), vehicle: saline
[6] = dose: 200.0 mg/kg/injection, schedule: Q01DX009 (ip), vehicle: saline
[7] = dose: 50.0 mg/kg/injection, schedule: Q01DX009 (ip), vehicle: saline with Tween-80
[8] = dose: 100.0 mg/kg/injection, schedule: Q01DX009 (ip), vehicle: saline with Tween-80
[9] = dose: 200.0 mg/kg/injection, schedule: Q01DX009 (ip), vehicle: saline with Tween-80
[10] = dose: 100.0 mg/kg/injection, schedule: Q04DX003 (ip), vehicle: saline with Tween-80
[11] = dose: 200.0 mg/kg/injection, schedule: Q04DX003 (ip), vehicle: saline with Tween-80
[12] = dose: 400.0 mg/kg/injection, schedule: Q04DX003 (ip), vehicle: saline with Tween-80
[13] = dose: 100.0 mg/kg/injection, schedule: Q04DX002 (ip), vehicle: Klucel (hydroxypropylcellulose) (HPC)
[14] = dose: 400.0 mg/kg/injection, schedule: Q04DX002 (ip), vehicle: Klucel (hydroxypropylcellulose) (HPC)

With `O=c1cc(/C=N/O)c2cccc3c2n1CCC3` the T/C (dose: 100.0 mg/kg/injection, schedule: Q01DX001 (ip), vehicle: saline with Tween-80) was 100 % of control, the T/C (dose: 200.0 mg/kg/injection, schedule: Q01DX001 (ip), vehicle: saline with Tween-80) was 91 % of control and the T/C (dose: 400.0 mg/kg/injection, schedule: Q01DX001 (ip), vehicle: saline with Tween-80) was 94 % of control.
`CCCCC(=O)N/N=C\c1ccc2c(c1)OCO2` was tested, and the T/C [1] was 94 % of control, the T/C [2] was 105 % of control and the T/C [3] was 91 % of control.
`COCCCN=C(N)c1ccc(NC(=O)c2ccc(C(=O)Nc3ccc(C(N)=NCCCOC)cc3)cc2)cc1` was tested, and the T/C (dose: 0.75 mg/kg/injection, schedule: Q01DX Z (ip), vehicle: saline) was 114 % of control, the T/C (dose: 1.0 mg/kg/injection, schedule: Q01DX006 (iv), vehicle: saline) was 106 % of control and the T/C (dose: 1.0 mg/kg/injection, schedule: Q01DX Z (ip), vehicle: saline) was 119 % of control. For the same molecule, the T/C (dose: 1.0 mg/kg/injection, schedule: Q01DX Z (sc), vehicle: saline) was 102 % of control, the T/C (dose: 1.0 mg/kg/injection, schedule: Q02DX004 (im), vehicle: saline) was 96 % of control and the T/C (dose: 2.0 mg/kg/injection, schedule: Q01DX006 (iv), vehicle: saline) was 98 % of control. The T/C (dose: 2.0 mg/kg/injection, schedule: Q01DX Z (sc), vehicle: saline) was 90 % of control, the T/C (dose: 2.0 mg/kg/injection, schedule: Q02DX004 (im), vehicle: saline) was 107 % of control and the T/C (dose: 3.0 mg/kg/injection, schedule: Q01DX Z (ip), vehicle: saline) was 156 % of control and 183 % of control. The T/C (dose: 4.0 mg/kg/injection, schedule: Q01DX006 (iv), vehicle: saline) was 122 % of control, the T/C (dose: 4.0 mg/kg/injection, schedule: Q01DX Z (ip), vehicle: saline) was 223 % of control and the T/C (dose: 4.0 mg/kg/injection, schedule: Q01DX Z (sc), vehicle: saline) was 154 % of control. The T/C (dose: 4.0 mg/kg/injection, schedule: Q02DX004 (im), vehicle: saline) was 106 % of control, the T/C (dose: 6.0 mg/kg/injection, schedule: Q01DX Z (ip), vehicle: saline) was 269 % of control and the T/C (dose: 6.0 mg/kg/injection, schedule: Q01DX Z (oral), vehicle: saline) was 97 % of control. The T/C (dose: 8.0 mg/kg/injection, schedule: Q01DX006 (iv), vehicle: saline) was 189 % of control, the T/C (dose: 8.0 mg/kg/injection, schedule: Q01DX Z (sc), vehicle: saline) was 158 % of control and the T/C (dose: 12.0 mg/kg/injection, schedule: Q01DX Z (oral), vehicle: saline) was 100 % of control. The T/C (dose: 15.0 mg/kg/injection, schedule: Q01DX Z (ip), vehicle: saline) was 115 % of control, the T/C (dose: 16.0 mg/kg/injection, schedule: Q01DX Z (ip), vehicle: saline) was 112 % of control and the T/C (dose: 16.0 mg/kg/injection, schedule: Q01DX Z (sc), vehicle: saline) was 116 % of control. The T/C (dose: 16.0 mg/kg/injection, schedule: Q02DX004 (im), vehicle: saline) was 154 % of control, the T/C (dose: 24.0 mg/kg/injection, schedule: Q01DX Z (oral), vehicle: saline) was 102 % of control and the T/C (dose: 32.0 mg/kg/injection, schedule: Q02DX004 (im), vehicle: saline) was 118 % of control. The T/C (dose: 48.0 mg/kg/injection, schedule: Q01DX Z (oral), vehicle: saline) was 100 % of control, the T/C (dose: 62.5 mg/kg/injection, schedule: Q## X010 (oral), vehicle: saline) was 96 % of control and the T/C (dose: 250.0 mg/kg/injection, schedule: Q## X010 (oral), vehicle: saline) was 119 % of control.
In the case of `CC(C)(C)N1CC1`, the T/C (dose: 25.0 mg/kg/injection, schedule: Q04DX002 (ip), vehicle: saline) is reported as 103 % of control, the T/C [4] is reported as 101 % of control and the T/C (dose: 50.0 mg/kg/injection, schedule: Q04DX002 (ip), vehicle: saline) is reported as 93 % of control. For the same molecule, the T/C [1] was 106 % of control, the T/C [5] was 111 % of control and the T/C (dose: 100.0 mg/kg/injection, schedule: Q04DX002 (ip), vehicle: saline) was 93 % of control. For the same molecule, the T/C [2] was 106 % of control and the T/C [6] was 103 % of control.
In the case of `C=CCSc1nc(N)nc2nc[nH]c12`, the T/C [7] is reported as 122 % of control, the T/C [8] is reported as 123 % of control and the T/C [9] is reported as 124 % of control.
`CC12OC(c3ccccc3)(C3=C1C1CCC(C1)C3(C)C)c1ccccc12` (configuration not stated) was tested, and the T/C [4] was 89 % of control, the T/C [1] was 103 % of control and the T/C [2] was 100 % of control. The T/C [3] was 112 % of control.
In the case of `Brc1cscc1Cc1ccccc1`, the T/C [7] is reported as 95 % of control, the T/C [8] is reported as 95 % of control and the T/C [9] is reported as 95 % of control.
In the case of `CCCCCC/C(=N/NC(N)=O)C(OC)OC`, the T/C (dose: 100.0 mg/kg/injection, schedule: Q01DX001 (ip), vehicle: other) is reported as 94 % of control, the T/C (dose: 200.0 mg/kg/injection, schedule: Q01DX001 (ip), vehicle: other) is reported as 105 % of control and the T/C (dose: 400.0 mg/kg/injection, schedule: Q01DX001 (ip), vehicle: other) is reported as 100 % of control.
In the case of `O=C(O)c1ccc(S(=O)(=O)O)cc1`, the T/C [5] is reported as 100 % of control, the T/C [6] is reported as 97 % of control and the T/C (dose: 400.0 mg/kg/injection, schedule: Q01DX009 (ip), vehicle: saline) is reported as 101 % of control.
For `CCOC(=O)CNC(=O)Nc1ccccc1F`, the T/C (dose: 50.0 mg/kg/injection, schedule: Q01DX009 (ip), vehicle: gum acacia) was 93 % of control and 97 % of control, the T/C (dose: 100.0 mg/kg/injection, schedule: Q01DX001 (ip), vehicle: gum acacia) was 101 % of control and 102 % of control and the T/C (dose: 100.0 mg/kg/injection, schedule: Q04DX002 (ip), vehicle: gum acacia) was 96 % of control and 97 % of control. The T/C (dose: 100.0 mg/kg/injection, schedule: Q04DX003 (ip), vehicle: gum acacia) was 94 % of control and 108 % of control, the T/C (dose: 200.0 mg/kg/injection, schedule: Q01DX001 (ip), vehicle: gum acacia) was 100 % of control and 102 % of control and the T/C (dose: 200.0 mg/kg/injection, schedule: Q04DX002 (ip), vehicle: gum acacia) was 93 % of control and 94 % of control. The T/C (dose: 200.0 mg/kg/injection, schedule: Q04DX003 (ip), vehicle: gum acacia) was 94 % of control and 101 % of control, the T/C (dose: 400.0 mg/kg/injection, schedule: Q01DX001 (ip), vehicle: gum acacia) was 95 % of control and 105 % of control and the T/C (dose: 400.0 mg/kg/injection, schedule: Q01DX009 (ip), vehicle: gum acacia) was 90 % of control and 91 % of control. The T/C (dose: 400.0 mg/kg/injection, schedule: Q04DX002 (ip), vehicle: gum acacia) was 96 % of control and 87 % of control and the T/C (dose: 400.0 mg/kg/injection, schedule: Q04DX003 (ip), vehicle: gum acacia) was 95 % of control and 96 % of control.
In the case of `O=C(O)CCC(=O)Nc1cccc(C(F)(F)F)c1`, the T/C (dose: 100.0 mg/kg/injection, schedule: Q01DX009 (ip), vehicle: Klucel (hydroxypropylcellulose) (HPC)) is reported as 103 % of control, the T/C (dose: 200.0 mg/kg/injection, schedule: Q01DX009 (ip), vehicle: Klucel (hydroxypropylcellulose) (HPC)) is reported as 105 % of control and the T/C (dose: 400.0 mg/kg/injection, schedule: Q01DX009 (ip), vehicle: Klucel (hydroxypropylcellulose) (HPC)) is reported as 100 % of control.
For `Brc1n[nH]nc1Br`, the T/C [10] was 98 % of control, the T/C [11] was 104 % of control and the T/C [12] was 101 % of control.
`Nc1ncnc(N)c1NC(=O)c1ccc(OCCCCOc2ccccc2)c(Cl)c1` was tested, and the T/C [10] was 101 % of control, the T/C [11] was 102 % of control and the T/C [12] was 96 % of control.
For `COc1ccc(-n2c(=O)c(N=Nc3ccc(Cl)cc3)c(O)n(-c3ccc(C)cc3)c2=S)cc1`, the T/C (dose: 37.5 mg/kg/injection, schedule: Q01DX001 (ip), vehicle: Klucel (hydroxypropylcellulose) (HPC)) was 92 % of control, the T/C (dose: 75.0 mg/kg/injection, schedule: Q01DX001 (ip), vehicle: Klucel (hydroxypropylcellulose) (HPC)) was 92 % of control and the T/C (dose: 150.0 mg/kg/injection, schedule: Q01DX001 (ip), vehicle: Klucel (hydroxypropylcellulose) (HPC)) was 91 % of control.
In the case of `O=C(Nc1ccc(Cl)cc1C(=O)c1ccccc1)c1ccc(Cl)cc1Cl`, the T/C [13] is reported as 103 % of control and the T/C [14] is reported as 89 % of control.
With `CC1CCCCN1Cc1ccccc1COC(=O)c1ccc([N+](=O)[O-])cc1` (configuration not stated) the T/C [13] was 90 % of control, the T/C (dose: 200.0 mg/kg/injection, schedule: Q04DX002 (ip), vehicle: Klucel (hydroxypropylcellulose) (HPC)) was 104 % of control and the T/C [14] was 114 % of control.
In the case of `Cc1nc(-c2ccc3ccc4cccnc4c3n2)no1`, the T/C (dose: 50.0 mg/kg/injection, schedule: Q04DX003 (ip), vehicle: saline with Tween-80) is reported as 93 % of control and the T/C [11] is reported as 86 % of control.
